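Dose response: 5 concentrations. Exposure: 48 h. Format: 96-well plates. Endpoint: linear interpolation; highest concentration if not reached. TGI marks complete inhibition of growth.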

Some test systems named below: SK-OV-3 ovarian; SK-MEL-5 melanoma; NCI-H522 lung; OVCAR-8 ovarian; NCI/ADR-RES ovarian; CAKI-1 renal; HOP-92 NSCLC; UO-31 renal; SNB-75 CNS; KM12 colon; NCI-H226 lung; HS 578T breast; OVCAR-5 ovarian; HL-60(TB) leukemia; COLO 205 colon; IGROV1 ovarian; RXF 393 renal; MDA-N; PC-3 prostate; M14 melanoma.
Holding throughout (experiment): NCI tumour cell line growth inhibition, 48 h

Regarding `COC(=O)C1=C(OC(=O)/C(=C/c2ccccc2)c2ccc(Cl)cc2)C(C(=O)OC)[C@@]2(O)[C@@H](C(=O)OC)[C@H](C)C[C@@H]1[C@@H]2C(=O)OC` (stereo not given in full), the TGI with SK-OV-3 ovarian, in the test with SK-MEL-5 melanoma, in the test on NCI-H522 lung, in the test on OVCAR-8 ovarian, in the test on NCI/ADR-RES ovarian and in the test with CAKI-1 renal was more than 100 µM in each case. Further, the TGI in the test on HOP-92 NSCLC, with UO-31 renal, with SNB-75 CNS, in the test on KM12 colon, in the test with NCI-H226 lung and in the test on HS 578T breast was more than 100 µM each time. For the same molecule, the TGI with OVCAR-5 ovarian, with HL-60(TB) leukemia, in the test on COLO 205 colon, in the test on IGROV1 ovarian, in the test with RXF 393 renal and with MDA-N was more than 100 µM in each case. The TGI with PC-3 prostate and in the test on M14 melanoma was more than 100 µM each time.
Consider `CCOC(=O)C1(C(=O)OCC)C[C@@H](C)[C@@H](O)C1`, for which the TGI with SK-OV-3 ovarian, in the test on SK-MEL-5 melanoma, in the test with NCI-H522 lung, in the test with OVCAR-8 ovarian, in the test with NCI/ADR-RES ovarian and in the test on CAKI-1 renal was more than 100 µM in each case. Further, the TGI in the test with HOP-92 NSCLC, in the test on UO-31 renal, in the test on SNB-75 CNS, with KM12 colon, with NCI-H226 lung and in the test on HS 578T breast was more than 100 µM in each case. Also, the TGI in the test with OVCAR-5 ovarian, in the test with HL-60(TB) leukemia, in the test with COLO 205 colon, with IGROV1 ovarian, with RXF 393 renal and in the test on MDA-N was more than 100 µM throughout. The TGI with PC-3 prostate and in the test with M14 melanoma was more than 100 µM each time.
As to `NC(=O)c1ncn(C2OC(CO)C(O)C2O)c1NC=O` (stereo not given), the TGI with SK-OV-3 ovarian, in the test with SK-MEL-5 melanoma, in the test on NCI-H522 lung, with OVCAR-8 ovarian, in the test on NCI/ADR-RES ovarian and in the test with CAKI-1 renal was more than 100 µM in each case. Also, the TGI with HOP-92 NSCLC, in the test with UO-31 renal, in the test on SNB-75 CNS, with KM12 colon, in the test with NCI-H226 lung and with HS 578T breast was more than 100 µM in each case. In addition, the TGI in the test on OVCAR-5 ovarian, in the test with HL-60(TB) leukemia, with COLO 205 colon, with IGROV1 ovarian, in the test with RXF 393 renal and in the test with MDA-N was more than 100 µM throughout. The TGI with PC-3 prostate and in the test on M14 melanoma was more than 100 µM in each case.
`Cc1c2c(OCC(O)CN3CCN(c4ccccc4)CC3)nn(C)c(=O)c2c(C)n1-c1ccccc1` (stereo not given): the TGI with SK-OV-3 ovarian is more than 100 µM; with SK-MEL-5 melanoma it was 30.3 µM; in the test with NCI-H522 lung it was 42.2 µM; in the test with OVCAR-8 ovarian it was more than 100 µM; in the test on NCI/ADR-RES ovarian, 63.8 µM; in the test on CAKI-1 renal, more than 100 µM. Also, the TGI in the test with HOP-92 NSCLC was more than 100 µM; in the test on UO-31 renal, 43.2 µM; with SNB-75 CNS, 75.5 µM; with KM12 colon, more than 100 µM; with NCI-H226 lung, 54.5 µM; in the test on HS 578T breast, 65.9 µM. Also, the TGI in the test with OVCAR-5 ovarian was 62 µM; with HL-60(TB) leukemia it was 49.1 µM; in the test on COLO 205 colon, 39.6 µM; in the test with IGROV1 ovarian, more than 100 µM; with RXF 393 renal, 70.2 µM; in the test with MDA-N it was 35.4 µM. The TGI is 55.9 µM in the test with PC-3 prostate and 30.7 µM with M14 melanoma.
With `C=C(C)[C@@]1(O)CCCC[C@@H]1CC(Sc1ccccc1)Sc1ccccc1`, the TGI in the test with SK-OV-3 ovarian came to 39.6 µM; with SK-MEL-5 melanoma, 29.5 µM; in the test on NCI-H522 lung, 26.5 µM; with OVCAR-8 ovarian, 38.6 µM; in the test on NCI/ADR-RES ovarian it was 34 µM; in the test with CAKI-1 renal, 28.8 µM. The TGI in the test on HOP-92 NSCLC turned out to be 18.9 µM; in the test with UO-31 renal it was 31.5 µM; in the test on SNB-75 CNS, 30 µM; in the test on KM12 colon, 35.1 µM; with NCI-H226 lung, 32.1 µM; in the test with HS 578T breast, 35.1 µM. Also, the TGI with OVCAR-5 ovarian is 30.7 µM; with HL-60(TB) leukemia, 78.4 µM; with COLO 205 colon, 31 µM; with IGROV1 ovarian, 33.6 µM; in the test with RXF 393 renal it was 29.2 µM; in the test on MDA-N it was 47.8 µM. For the same molecule, the TGI in the test on PC-3 prostate turned out to be 34.8 µM; with M14 melanoma it was 39.3 µM.
`NC(=O)c1cccc(N=c2oc3ccc(Br)cc3cc2-c2nc3ccccc3[nH]2)c1`: the TGI stood at 32.7 µM in the test on SK-OV-3 ovarian; 11.3 µM in the test on SK-MEL-5 melanoma; 77.4 µM in the test on NCI-H522 lung; 28.2 µM in the test on OVCAR-8 ovarian; 35.9 µM with NCI/ADR-RES ovarian; 34.3 µM with CAKI-1 renal. In addition, the TGI was determined as 36.4 µM with HOP-92 NSCLC; 20.8 µM in the test with UO-31 renal; 23.6 µM in the test on SNB-75 CNS; 49 µM in the test with KM12 colon; 24.2 µM in the test with NCI-H226 lung; 74.5 µM in the test on HS 578T breast. Moreover, the TGI amounted to 30.2 µM in the test on OVCAR-5 ovarian; 51.3 µM in the test on HL-60(TB) leukemia; 35.8 µM with COLO 205 colon; 33.6 µM with IGROV1 ovarian; 43.5 µM with RXF 393 renal; 38.1 µM in the test with MDA-N. The TGI in the test with PC-3 prostate is 29.2 µM; in the test on M14 melanoma, 32.3 µM.
In the case of `CC(Oc1ccccc1Cl)C(=O)NN1C(=O)CC(=O)NC1=S` (stereo not given), the TGI in the test with SK-OV-3 ovarian, with SK-MEL-5 melanoma, in the test with NCI-H522 lung, in the test with OVCAR-8 ovarian, with NCI/ADR-RES ovarian and in the test on CAKI-1 renal was more than 100 µM in each case. Besides, the TGI in the test with HOP-92 NSCLC, with UO-31 renal, with SNB-75 CNS, with KM12 colon, in the test on NCI-H226 lung and in the test with HS 578T breast was more than 100 µM in each case. The TGI in the test on OVCAR-5 ovarian, in the test on HL-60(TB) leukemia, in the test on COLO 205 colon, with IGROV1 ovarian, in the test with RXF 393 renal and in the test on MDA-N was more than 100 µM each time. Moreover, the TGI in the test with PC-3 prostate and with M14 melanoma was more than 100 µM throughout.

Values taken from PubChem BioAssay (NCI).
